Laboratory results published in PubChem BioAssay AID256 (DTP/NCI, 2004).
Several values for one entry are separate records, joined by “and”; a condition that tells them apart may be missing. Equal entries are not always repeated. Inconclusive results and toxic doses are left out. How the source made its calls: active means survival T/C of 150% or more; inactive means T/C below 125% in these data.

Tested on: CD2F1 mice, L1210 leukemia ip, survival T/C
Test: NCI In Vivo Anticancer Drug Screen. Data for tumor model L1210 Leukemia (intraperitoneal) in CD2F1 (CDF1) mice
Details: higher = longer survival
How it was run: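 Implant tumor; dose compound or vehicle; measure endpoint in both groups; report treated divided by control.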

[1] = endpoint: mean survival time, dose: 100.0 mg/kg/injection, schedule: Q01DX009 (ip), vehicle: saline with Tween-80
[2] = endpoint: mean survival time, dose: 100.0 mg/kg/injection, schedule: Q04DX003 (ip), vehicle: saline with Tween-80
[3] = endpoint: mean survival time, dose: 200.0 mg/kg/injection, schedule: Q01DX009 (ip), vehicle: saline with Tween-80
[4] = endpoint: mean survival time, dose: 200.0 mg/kg/injection, schedule: Q04DX003 (ip), vehicle: saline with Tween-80
[5] = endpoint: mean survival time, dose: 400.0 mg/kg/injection, schedule: Q01DX009 (ip), vehicle: saline with Tween-80
[6] = endpoint: mean survival time, dose: 400.0 mg/kg/injection, schedule: Q04DX003 (ip), vehicle: saline with Tween-80
[7] = endpoint: mean survival time, dose: 100.0 mg/kg/injection, schedule: Q04DX003 (ip), vehicle: Klucel (hydroxypropylcellulose) (HPC)
[8] = endpoint: mean survival time, dose: 200.0 mg/kg/injection, schedule: Q04DX003 (ip), vehicle: Klucel (hydroxypropylcellulose) (HPC)
[9] = endpoint: mean survival time, dose: 12.5 mg/kg/injection, schedule: Q04DX003 (ip), vehicle: saline with Tween-80
[10] = endpoint: mean survival time, dose: 100.0 mg/kg/injection, schedule: Q04DX002 (ip), vehicle: saline with Tween-80
[11] = endpoint: mean survival time, dose: 200.0 mg/kg/injection, schedule: Q04DX002 (ip), vehicle: saline with Tween-80
[12] = endpoint: mean survival time, dose: 400.0 mg/kg/injection, schedule: Q04DX002 (ip), vehicle: saline with Tween-80
[13] = endpoint: mean survival time, dose: 3.0 mg/kg/injection, schedule: Q01DX009 (ip), vehicle: saline with Tween-80
[14] = endpoint: mean survival time, dose: 6.0 mg/kg/injection, schedule: Q01DX009 (ip), vehicle: saline with Tween-80

Measured: T/C

O=C(O)c1ccccc1C(=O)Nc1ccccc1C(F)(F)F
inactive: [1] 104 % of control | [2] 96 % of control | [3] 106 % of control | [4] 102 % of control | [5] 95 % of control | [6] 105 % of control

c1ccc(CNCc2ccccc2)cc1
inactive: [7] 97 % of control | [8] 100 % of control

c1cc2c3c(c1)-c1nc4ccccc4cc1CN3CCC2
inactive: [2] 98 % of control | [4] 101 % of control | [6] 97 % of control

CCC1(O)C(=O)OCc2c1cc1n(c2=O)Cc2cc3ccc(CO)cc3nc2-1 (centres undefined)
inactive: endpoint: median survival time, dose: 4.0 mg/kg/injection, schedule: Q04DX002 (ip), vehicle: saline with Tween-80 100 % of control | endpoint: median survival time, dose: 8.0 mg/kg/injection, schedule: Q04DX002 (ip), vehicle: saline with Tween-80 113 % of control | endpoint: median survival time, dose: 16.0 mg/kg/injection, schedule: Q04DX002 (ip), vehicle: saline with Tween-80 98 % of control | endpoint: median survival time, dose: 32.0 mg/kg/injection, schedule: Q04DX002 (ip), vehicle: saline with Tween-80 108 % of control

Nc1ccccc1C(=O)O
inactive: endpoint: mean survival time, dose: 100.0 mg/kg/injection, schedule: Q01DX001 (ip), vehicle: saline with Tween-80 97 % of control | endpoint: mean survival time, dose: 200.0 mg/kg/injection, schedule: Q01DX001 (ip), vehicle: saline with Tween-80 100 % of control | endpoint: mean survival time, dose: 400.0 mg/kg/injection, schedule: Q01DX001 (ip), vehicle: saline with Tween-80 100 % of control

O=c1ccn(C2CC3[O][Sn]([c]4ccccc4)([c]4ccccc4)[O]CC3O2)c(=O)[nH]1 (centres undefined)
inactive: endpoint: mean survival time, dose: 6.25 mg/kg/injection, schedule: Q01DX005 (ip), vehicle: distilled water + Tween-80 104 % of control | endpoint: mean survival time, dose: 12.5 mg/kg/injection, schedule: Q01DX005 (ip), vehicle: distilled water + Tween-80 98 % of control | endpoint: mean survival time, dose: 25.0 mg/kg/injection, schedule: Q01DX005 (ip), vehicle: distilled water + Tween-80 108 % of control | endpoint: mean survival time, dose: 100.0 mg/kg/injection, schedule: Q01DX005 (ip), vehicle: distilled water + Tween-80 90 % of control

O=S1(=O)CCC2CCCCC2C1 (centres undefined)
inactive: [9] 103 % of control | endpoint: mean survival time, dose: 25.0 mg/kg/injection, schedule: Q04DX003 (ip), vehicle: saline with Tween-80 100 % of control

Nc1c(Cl)c(Cl)cc(Cl)c1Cl
inactive: [2] 97 % of control | [4] 102 % of control | [6] 92 % of control

Nc1cccc2scnc12
inactive: [1] 104 % of control | [3] 96 % of control

O=Cc1cc(Cl)ccc1O
inactive: [1] 108 % of control | [2] 95 % of control | [3] 102 % of control | [4] 95 % of control

Cc1ccc2snc(C(=O)O)c2c1[N+](=O)[O-]
inactive: [2] 98 % of control | [4] 104 % of control | [6] 103 % of control

CC1(C)N=C(N)N=C(N)N1c1ccc(CNC(=O)Nc2cccc(S(=O)(=O)F)c2)cc1
inactive: endpoint: mean survival time, dose: 6.25 mg/kg/injection, schedule: Q01DX009 (ip), vehicle: saline 115 % of control | endpoint: mean survival time, dose: 75.0 mg/kg/injection, schedule: Q01DX001 (ip), vehicle: other 104 % of control | endpoint: mean survival time, dose: 150.0 mg/kg/injection, schedule: Q01DX001 (ip), vehicle: other 107 % of control | endpoint: mean survival time, dose: 300.0 mg/kg/injection, schedule: Q01DX001 (ip), vehicle: other 115 % of control

CCOc1ccc(OCC)c(NC(=O)Nc2ccc(OC)cc2)c1
inactive: [10] 89 % of control | [11] 93 % of control | [12] 86 % of control

CCC[CH2][Sn]([CH2]C)([CH2]C)[O]C(C)=O
inactive: endpoint: mean survival time, dose: 2.5 mg/kg/injection, schedule: Q01DX009 (ip), vehicle: saline with Tween-80 104 % of control | endpoint: mean survival time, dose: 5.0 mg/kg/injection, schedule: Q01DX009 (ip), vehicle: saline with Tween-80 102 % of control

O=[N+]([O-])c1ccc(Cl)c(CCl)c1
inactive: [1] 94 % of control | [2] 100 % of control | [3] 93 % of control | [4] 100 % of control | [6] 102 % of control

NC(N)=Nc1ccc(C(=O)O)cc1
inactive: [2] 100 % of control | [4] 95 % of control | [6] 88 % of control

Oc1c(Cl)c(Cl)c(Cl)c2ccccc12
inactive: [2] 100 % of control | [4] 97 % of control | [6] 100 % of control

COc1cc2ccc(-c3cc(C(=O)O)c4ccccc4n3)cc2cc1OC
inactive: endpoint: mean survival time, dose: 75.0 mg/kg/injection, schedule: Q01DX001 (ip), vehicle: saline 93 % of control | endpoint: mean survival time, dose: 150.0 mg/kg/injection, schedule: Q01DX001 (ip), vehicle: saline 93 % of control

C=C1CC(O)C2C(=C)C(=O)OC2C2C(C)C(=O)CC12 (centres undefined)
inactive: endpoint: mean survival time, dose: 6.25 mg/kg/injection, schedule: Q01DX009 (ip), vehicle: Klucel (hydroxypropylcellulose) (HPC) 95 % of control | endpoint: mean survival time, dose: 12.5 mg/kg/injection, schedule: Q01DX009 (ip), vehicle: Klucel (hydroxypropylcellulose) (HPC) 100 % of control | endpoint: mean survival time, dose: 25.0 mg/kg/injection, schedule: Q01DX009 (ip), vehicle: Klucel (hydroxypropylcellulose) (HPC) 105 % of control

Cc1ccc(NC(=O)c2ccc(C(=O)Nc3ccc(C)cc3)cc2)cc1
inactive: [1] 98 % of control | [2] 87 % of control | [3] 88 % of control | [4] 97 % of control | [5] 93 % of control | [6] 86 % of control

O=C1C=CC(=O)N1c1ccccc1[N+](=O)[O-]
inactive: [13] 96 % of control | [14] 100 % of control | endpoint: mean survival time, dose: 6.25 mg/kg/injection, schedule: Q04DX003 (ip), vehicle: saline with Tween-80 100 % of control | endpoint: mean survival time, dose: 12.0 mg/kg/injection, schedule: Q01DX009 (ip), vehicle: saline with Tween-80 97 % of control | [9] 97 % of control

CCCCCCCCCCCCCCCCS(=O)CC(O)COC(=O)c1ccc(C(=O)OCC(O)CS(=O)CCCCCCCCCCCCCCCC)cc1 (centres undefined)
inactive: endpoint: mean survival time, dose: 12.5 mg/kg/injection, schedule: Q01DX009 (ip), vehicle: saline + Tween-80 + alcohol 96 % of control | endpoint: mean survival time, dose: 12.5 mg/kg/injection, schedule: Q01DX009 (ip), vehicle: saline + alcohol 91 % of control | endpoint: mean survival time, dose: 25.0 mg/kg/injection, schedule: Q01DX009 (ip), vehicle: saline + Tween-80 + alcohol 88 % of control | endpoint: mean survival time, dose: 25.0 mg/kg/injection, schedule: Q01DX009 (ip), vehicle: saline + alcohol 105 % of control | endpoint: mean survival time, dose: 50.0 mg/kg/injection, schedule: Q01DX009 (ip), vehicle: saline + Tween-80 + alcohol 90 % of control | endpoint: mean survival time, dose: 50.0 mg/kg/injection, schedule: Q01DX009 (ip), vehicle: saline + alcohol 105 % of control | endpoint: mean survival time, dose: 100.0 mg/kg/injection, schedule: Q01DX009 (ip), vehicle: saline + Tween-80 + alcohol 107 % of control | endpoint: mean survival time, dose: 100.0 mg/kg/injection, schedule: Q01DX009 (ip), vehicle: saline + alcohol 91 % of control | endpoint: mean survival time, dose: 200.0 mg/kg/injection, schedule: Q01DX009 (ip), vehicle: saline + Tween-80 + alcohol 107 % of control | endpoint: mean survival time, dose: 200.0 mg/kg/injection, schedule: Q01DX009 (ip), vehicle: saline + alcohol 97 % of control | endpoint: mean survival time, dose: 400.0 mg/kg/injection, schedule: Q01DX009 (ip), vehicle: saline + alcohol 105 % of control

Nc1nc(N)nc(NC(=O)COc2cc(Cl)c(Cl)cc2Cl)n1
inactive: [1] 100 % of control | [2] 92 % of control | [3] 105 % of control | [5] 103 % of control | [6] 88 % of control

NC(=S)/N=C\C(CC(O)C(O)C(O)CO)=N\NC(N)=S (centres undefined)
inactive: endpoint: mean survival time, dose: 6.25 mg/kg/injection, schedule: Q01DX009 (ip), vehicle: saline with Tween-80 96 % of control | endpoint: mean survival time, dose: 12.5 mg/kg/injection, schedule: Q01DX009 (ip), vehicle: saline with Tween-80 96 % of control | endpoint: mean survival time, dose: 25.0 mg/kg/injection, schedule: Q01DX009 (ip), vehicle: saline with Tween-80 95 % of control and 100 % of control | endpoint: mean survival time, dose: 50.0 mg/kg/injection, schedule: Q01DX009 (ip), vehicle: saline with Tween-80 93 % of control and 101 % of control | [1] 101 % of control | [3] 86 % of control

COc1cc(NC(=O)Nc2ccccc2OC)c(OC)cc1Cl
inactive: [10] 90 % of control | [11] 93 % of control | [12] 107 % of control

O=C(N/N=C/c1cccc(Cl)c1)c1ccccc1
inactive: [1] 94 % of control | [7] 96 % of control | [3] 94 % of control | [8] 94 % of control | [5] 96 % of control | endpoint: mean survival time, dose: 400.0 mg/kg/injection, schedule: Q04DX003 (ip), vehicle: Klucel (hydroxypropylcellulose) (HPC) 94 % of control

CC12CCC3C(CCC4CC(O)CCC43C)C1CCC2=O (centres undefined)
inactive: [2] 103 % of control | [4] 92 % of control | [6] 97 % of control

C/C=C(\Cl)C1=CC(=O)C23CC2C2(C)COC1(O)C3(O)O2 (centres undefined)
inactive: endpoint: mean survival time, dose: 1.5 mg/kg/injection, schedule: Q01DX009 (ip), vehicle: saline with Tween-80 93 % of control | [13] 93 % of control | [14] 110 % of control
